Results published in the supplement of paper PMC10307832.

Tests used:
Test in all cases: relative viability (nuclei count vs DMSO), 5 days (fraction); higher = more cells survive
[1] = compound: C1CC(C1)(C(=O)O)C(=O)O.[NH2-].[NH2-].[Pt+2] [Carboplatin] + CC(=O)c1c(C)c2cnc(Nc3ccc(N4CCNCC4)cn3)nc2n(C2CCCC2)c1=O [Palbociclib] (partner 0.5 µM)
Summary of the method: (§1)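 Lung cancer cell lines in 1536-well plates were dosed by pin tool the day after seeding, either with one drug alone or with a fixed anchor-drug dose plus five library-drug doses (not always all listed) in √10 steps. After 5 days, cells were fixed and their nuclei stained in one step (final 0.05% Triton X-100, 1% formaldehyde, 1 ug/ml Hoechst), then counted on 4× images. Relative viability is the nuclei count in treated wells divided by that in vehicle wells. Values are medians of duplicate plates.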

Carboplatin + Pictilisib = compound: C1CC(C1)(C(=O)O)C(=O)O.[NH2-].[NH2-].[Pt+2] [Carboplatin] + CS(=O)(=O)N1CCN(Cc2cc3nc(-c4cccc5[nH]ncc45)nc(N4CCOCC4)c3s2)CC1 [Pictilisib] (partner 1 µM)
Summary of the method: as §1

GSK126 + Lapatinib = compound: CC[C@H](C)N1C=C(C2=C(C=C(C=C21)C3=CN=C(C=C3)N4CCNCC4)C(=O)NCC5=C(C=C(NC5=O)C)C)C [GSK126] + CS(=O)(=O)CCNCc1ccc(-c2ccc3ncnc(Nc4ccc(OCc5cccc(F)c5)c(Cl)c4)c3c2)o1 [Lapatinib] (partner 2 µM)
Summary of the method: as §1

GSK126 + Olaparib = compound: CC[C@H](C)N1C=C(C2=C(C=C(C=C21)C3=CN=C(C=C3)N4CCNCC4)C(=O)NCC5=C(C=C(NC5=O)C)C)C [GSK126] + O=C(c1cc(Cc2n[nH]c(=O)c3ccccc23)ccc1F)N1CCN(C(=O)C2CC2)CC1 [Olaparib] (partner 8 µM)
Summary of the method: as §1

Cell Line	relative viability ([1]; first compound 0.08 µM)	relative viability ([1]; first compound 0.253 µM)	relative viability ([1]; first compound 0.8 µM)	relative viability ([1]; first compound 2.53 µM)	relative viability ([1]; first compound 8 µM)	relative viability (Carboplatin + Pictilisib; first compound 0.08 µM)	relative viability (Carboplatin + Pictilisib; first compound 0.253 µM)	relative viability (Carboplatin + Pictilisib; first compound 0.8 µM)	relative viability (Carboplatin + Pictilisib; first compound 2.53 µM)	relative viability (Carboplatin + Pictilisib; first compound 8 µM)	relative viability (GSK126 + Lapatinib; first compound 0.08 µM)	relative viability (GSK126 + Lapatinib; first compound 0.253 µM)	relative viability (GSK126 + Lapatinib; first compound 0.8 µM)	relative viability (GSK126 + Lapatinib; first compound 2.53 µM)	relative viability (GSK126 + Lapatinib; first compound 8 µM)	relative viability (GSK126 + Olaparib; first compound 0.08 µM)	relative viability (GSK126 + Olaparib; first compound 0.253 µM)	relative viability (GSK126 + Olaparib; first compound 0.8 µM)	relative viability (GSK126 + Olaparib; first compound 2.53 µM)	relative viability (GSK126 + Olaparib; first compound 8 µM)
NCI-H1395	0.703	0.679	0.547	0.487	0.535	0.722	0.548	0.854	0.548	0.513	1.04	0.973	1.3	1.14	1.03	0.468	0.465	0.438	0.456	0.414
NCI-H23	0.453	0.513	0.513	0.461	0.419	0.477	0.483	0.481	0.472	0.391	1.26	1.02	1.02	1.22	1.2	0.299	0.361	0.312	0.3	0.263
HARA	0.311	0.344	0.204	0.225	0.308	0.424	0.341	0.387	0.382	0.391	0.734	0.602	0.736	0.804	0.807	0.994	0.911	0.934	0.861	0.657
HCC-366	0.484	0.401	0.339	0.233	0.152	0.138	0.128	0.0961	0.158	0.106	1.02	0.948	1.08	1.09	1.12	0.451	0.386	0.366	0.396	0.342
NCI-H838	0.213	0.238	0.212	0.224	0.261	0.476	0.391	0.469	0.454	0.485	1.12	0.938	0.882	0.865	0.906	0.82	0.817	0.738	0.714	0.769
NCI-H2023	0.433	0.384	0.318	0.326	0.121	0.262	0.27	0.261	0.192	0.171	1.33	0.797	1.04	1.23	1.2	0.489	0.496	0.446	0.467	0.382
HCC-78	0.446	0.495	0.491	0.464	0.433	0.213	0.228	0.194	0.217	0.21	0.713	1.06	0.886	0.711	0.722	0.742	0.822	0.807	0.822	0.617
EPLC-272H	0.352	0.325	0.32	0.327	0.359	0.373	0.305	0.313	0.322	0.349	0.995	0.975	0.851	1.06	0.915	0.818	0.749	0.697	0.806	0.804
